# Measured values as given in patent US20250034182A1, “PHOSPHOLIPID COMPOUNDS AND METHODS OF MAKING AND USING THE SAME” (priority 2021, published 2025).
# Experiments:
# Assay type in all cases: cell-based
# [1] = test system: dengue virus type 2 in Huh7 hepatoblastoma cells; experiment: Dengue Virus-2 Huh-7 EC50 (Example W); details: MOI of 0.07, CPE, neutral red dye, read-out: Dengue Virus-2 Huh-7 EC50 (nM) (per Ex. W)
# Outline: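 Huh7 monolayers were infected with dengue virus type 2 (about 2000 CCID50/well, MOI 0.07) in the presence of eight 3-fold compound dilutions, top 50 μg/mL, and incubated until >80% CPE. Viability by neutral red uptake at 540 nm, normalized to virus controls; EC50 and CC50 by linear regression.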
# in vitro = details: human
# [2] = test system: CAN97-83-GFP1 (A2a) hMPV in H1-HeLa cells; experiment: hMPV H1-Hela EC50, anti-nucleoprotein ELISA (Example X); details: human metapneumovirus, 96 h, read-out: hMPV H1-Hela EC50 (nM) (per Ex. X)
# Experimental: The human metapneumoavirus (hMPV) anti-viral assay is an anti-nucleoprotein ELISA performed in infected H1-HeLa cells. H1-HeLa cells were maintained in Dulbecco's Modified Eagle's Medium with high glucose (Gibco, Cat #: 11995073) supplemented with 10% FBS (HyClone, Cat #: SH303396.03), 100 units/mL penicillin and 100 μg/mL streptomycin (Gibco, Cat #: 15140122). One day before infection, H1-HeLa cells were seeded into 96-well plates (Corning, Cat. #: 3903) at 0.1 mL/well at 1.5×10^5 cells/mL in Opti-MEM (Gibco, Cat #: 31985070) supplemented with 2% FBS, and were incubated at 37° C. in a 100% humid atmosphere containing 5% (v/v) CO2 overnight. On the next day, CAN97-83-GFP1 (A2a) hMPV was diluted in Opti-MEM medium containing 200 μg/mL CaCl2) and 2 μg/mL TPCK treated trypsin and distributed to the 96-well plates at 0.1 mL/well for an MOI=0.1. Test compounds were distributed to each well using a HP D300e digital dispenser with a final volume of 200 µL/well. After the plates were centrifuged at 700 g for one hour at room temperature, they were maintained in a humidified chamber at 37-C with 5% (v/v) CO2 for 96 hours. After the incubation, the medium was removed, and the plates were fixed with 0.1 mL/well 1% formaldehyde for 15 min at room temperature. The fixative was removed, the plates were air dried for 30-60 minutes, and then permeabilized with 0.1 mL/well 0.5% Triton X-100 in PBS for five minutes at room temperature. Following permeabilization, the plates were washed once with 0.1 mL/well blocking buffer consisting of 10% FBS (HyClone, Cat #: SH303396.03), 5% dry milk (AmericanBio, Cat #: AB10109-01000), and 0.1% Tween 20 (EMD Millipore, Cat #655204) in PBS. The plates were blocked with 0.1 mL/well blocking buffer for 60 minutes at 37° C. afterward. The blocking buffer was removed and 0.05 mL/well human metapneumovirus nucleocapsid antibody (Sigma, Cat #MAB80121) diluted 1:500 in Blocking buffer was added and incubated for two hours at 37-C. The plates were then washed with 0.2 mL/well 0.1% Tween 20/PBS five times, followed by addition of 0.05 mL/well of horseradish peroxidase (HRP) conjugated goat anti-mouse IgG antibody (Fisher Scientific, Cat #501077607) at 1:2000 dilution in the blocking buffer. After one-hour incubation at 37-C, plates were washed five times with 0.2 mL/well 0.1% tween 20 in PBS. The HRP signals were developed by adding 0.1 mL/well of TMB reagent (Thermo Scientific, Cat #: ENN301) and incubating at room until the positive control was apparent. At that point, the reaction was stopped by adding 0.1 mL/well TMB stop solution (SeraCare, Cat #: 5150-0021). The absorbance was measured at 450 nm with an EnVision plate reader. The relative absorbance was calculated by normalizing the absorbance of the compound-treated groups to that of the DMSO-treated groups (set as 100%). EC50 values were calculated using a nonlinear four parameter variable slope regression model.
SMILES,EC50 [1] [nM],CC50 (in vitro) [µM],EC50 [2] [nM]
"CCCCCCCCCCCCCCCCCCC[C@H](COP(=O)(O)OC[C@@]1(C#N)O[C@@H](c2ccc3c(N)ncnn23)[C@H](O)[C@@H]1O)Oc1ccc(C#N)c(OC(C)C)c1 [Compound 38, ((2R,3S,4R,5S)-5-(4-aminopyrrolo[2,1-f][1,2,4]triazin-7-yl)-2-cyano-3,4-dihydroxytetrahydrofuran-2-yl)methyl ((R)-2-(4-cyano-3-isopropoxyphenoxy)henicosyl) hydrogen phosphate]",2900,5.8,137
"CCCCCCCCCCCCCCCCCCOC[C@H](COP(=O)(O)OC[C@@]1(C#N)O[C@@H](c2ccc3c(N)ncnn23)[C@H](O)[C@@H]1O)OCc1cc(F)cc(C#N)c1 [Compound 1, ((2R,3S,4R,5S)-5-(4-aminopyrrolo[2,1-f][1,2,4]triazin-7-yl)-2-cyano-3,4-dihydroxytetrahydrofuran-2-yl)methyl ((R)-2-((3-cyano-5-fluorobenzyl)oxy)-3-(octadecyloxy)propyl) hydrogen phosphate]",9700,18,440
"CCCCCCCCCCCCCCCCCCC[C@H](COP(=O)(O)OC[C@@]1(C#N)O[C@@H](c2ccc3c(N)ncnn23)[C@H](O)[C@@H]1O)OCc1cc(F)cc(C#N)c1 [Compound 25, ((2R,3S,4R,5S)-5-(4-aminopyrrolo[2,1-f][1,2,4]triazin-7-yl)-2-cyano-3,4-dihydroxytetrahydrofuran-2-yl)methyl ((R)-2-((3-cyano-5-fluorobenzyl)oxy)henicosyl) hydrogen phosphate]",9200,13,1280
